Publication PMC3462775 (PLoS ONE, 2012)
Converted amounts (≈) assume the structure as drawn. Bridge positions count the residues as written; N and C are the ends. Square brackets hold non-standard residues; d marks the D form. Peptide text beside a SMILES is read from it. I, II: the chains in the order shown. βAla = NCCC(=O)O

What was measured:
K.pneumoniae ATCC 13833 = assay: MIC, standard microdilution assay; format: cell-based, Klebsiella pneumoniae; conditions: Reference strain, wild type; CLSI microdilution, cation-supplemented Mueller-Hinton broth, 5x10^4 CFU/well, 18–20 h at 37°C, triplicate
Procedure: (§1) MICs were determined using a standard microdilution assay as recommended by the Clinical and Laboratory Standards Institute. Assays were performed in triplicate using cation-supplemented Mueller-Hinton (MH) broth (Becton Dickinson, Franklin Lakes, NJ, USA) and a bacterial inoculum of 5x10^4 CFU/well, in a final volume of 100 µl. The tested concentrations ranged from 0.1 µM to 24 µM for both peptides. Results were recorded after 18–20 h of incubation at 37°C.

E.coli W03BG0025 = format: cell-based, Escherichia coli
Procedure: as §1

S.aureus ATCC 29213 = assay: MIC, standard microdilution assay; format: cell-based, Staphylococcus aureus; conditions: Reference strain, wild type; CLSI microdilution, cation-supplemented Mueller-Hinton broth, 5x10^4 CFU/well, 18–20 h at 37°C, triplicate
Procedure: as §1

S.epidermidis ATCC 14990 = assay: MIC, standard microdilution assay; format: cell-based, Staphylococcus epidermidis; conditions: Reference strain, wild type; CLSI microdilution, cation-supplemented Mueller-Hinton broth, 5x10^4 CFU/well, 18–20 h at 37°C, triplicate
Procedure: as §1

S.epidermidis 6154 = format: cell-based, Staphylococcus epidermidis
Procedure: as §1

[1] = test system: E. coli ATCC 25922 biofilm; format: cell-based, Escherichia coli; conditions: ATCC 25922, 2 h
Procedure: Biofilm formation was performed by adapting the procedure described in [39] using the Calgary Biofilm Device (Innovotech, Innovotech Inc. Edmonton, Canada). Briefly, 96-well plates containing the bacterial inoculum were sealed with lids bearing 96 pegs on which the biofilm could build up. The plates were placed in an orbital incubator at 35°C (for P. aeruginosa and E. coli) or 37°C (for S. aureus) for 20 h under agitation at 125 rpm. Once biofilms formed, the lids were removed from the plates and the pegs were rinsed twice with phosphate buffered saline (PBS) to remove planktonic cells. The peg-lid was then transferred to a 96-well challenge microtiter plate, each well containing 200 µl of a twofold serial dilution of each peptide in LB medium. The challenge plate was incubated at 37°C for 2 hours. Peptide activity on pre-formed biofilm was evaluated by two independent methods: (i) visual observation of bacterial growth and (ii) counting of living bacterial cells after peptide treatment. In the first case, the peg-lid was removed from the challenge plate, rinsed with PBS and used to cover a 96-well recovery microtiter plate, each well containing 200 µl LB medium. […] Colony forming units (CFU) were expressed as percentage with respect to control (peptide-untreated biofilms). […]

S. aureus USA300 = assay: In vivo anti-MRSA activity, lethal i.p. infection of mice; conditions: Balb-c mice (20 g), groups of 5, i.p. LD100 (1×10^6) S. aureus USA 300 in 7% mucin, single i.p. peptide 25 mg/kg 30 min later; for survival: after 7 days
Procedure: The smallest number of bacteria causing 100% lethal infection (LD100) after intra-peritoneal (i.p.) injection was 1×10^6 in the presence of 7% mucin. An LD100 killed mice within 20 hours. Mice were infected with the LD100 of bacteria and treated i.p. with the peptides 30 minutes later.
Figure 4 In vivo antibacterial activity of tetrabranched M33-L and M33-D peptides. Balb-c mice (20 g) were injected i.p. with a lethal amount of S. aureus USA300 cells. Dashed line (Ctr), injection with bacteria and no peptides; dotted line, injection with bacteria and a single injection of M33-L peptide (25 mg/kg) 30 min later; continuous line, injection with bacteria and a single injection of M33-D peptide (25 mg/kg) 30 min later.
Animal procedures were approved by the Ethical Committee of the Azienda Ospedaliera Universitaria Senese on November 18, 2010. Balb-c mice (20 g) were infected i.p. with lethal amounts of bacteria (see results) mixed in 500 µl PBS +7% mucin (mucin from porcine stomach, type II, Sigma-Aldrich). Bacteria were cultured overnight, centrifuged, mixed in sterile PBS, and measured by spectrophotometer. Possible further dilutions in PBS were sometimes necessary to obtain the right amount of bacteria. Groups consisted of 5 animals. Moribund animals were killed humanely to avoid unnecessary distress. Surviving mice were monitored for 7 days. Thirty minutes after bacterial administration, peptides were inoculated i.p. with 0.5 ml PBS solution containing the indicated amount of peptide (see Results). Control animals received only PBS. P values were calculated using GraphPad Prism software.

[2] = Calcein release from liposomes mimicking the membrane of E. coli; conditions: PE/PG 7∶3 liposomes, 50 µM lipid, 10 min at 20°C, peptide 0,5 to 15 µM, fluorescence 490/517 nm, three independent experiments
Description: To investigate interaction of peptides M33-D and M33-L with the bacterial membrane, including possible perturbation, we used vesicles with two lipid compositions to mimic the membrane of S. aureus (CL/PG, 4∶6 mol/mol) and E. coli (PE/PG, 7∶3 mol/mol). […] The peptide-induced effect was dose-dependent in both vesicle lipid compositions. […] No significant differences in the effects induced by M33-D and M33-L were evident, although the D peptide seemed slightly more efficient towards CL/PG liposomes at doses above 8 µM. […] The greater perturbing effect of both forms of M33 on PE/PG vesicles, compared to vesicles containing cardiolipin, was evident.
Calcein-loaded liposomes of two different composition (PE/PG, 7∶3 mol/mol and CL/PG, 4∶6 mol/mol) were prepared as follows. […] Lipid concentration of vesicles was measured by the method of Stewart and the final concentration used for all measurements was 50 µM. Calcein fluorescence in the vesicles is self-quenched and leakage was measured by relief of quenching; the measurements were carried out at 517 nm, exciting at 490 nm, with a Perkin-Elmer LS 50B spectrofluorimeter. […] Leakage was calculated by the equation: [drawing 1] where F and Ft are fluorescence […] addition of detergent and F0 the fluorescence of intact vesicles.

Work on CC[C@@H](C)[C@@H](NC(=O)[C@@H](CCCCN)NC(=O)[C@H](N)CCCCN)C(=O)N[C@H](CCCNC(=N)N)C(=O)N[C@@H](C(=O)N[C@H](CCCNC(=N)N)C(=O)N[C@H](CC(C)C)C(=O)N[C@H](CO)C(=O)N[C@H](C)C(=O)NCCCC[C@H](NC(=O)[C@@H](C)NC(=O)[C@@H](CO)NC(=O)[C@@H](CC(C)C)NC(=O)[C@@H](CCCNC(=N)N)NC(=O)[C@H](NC(=O)[C@@H](CCCNC(=N)N)NC(=O)[C@H](NC(=O)[C@@H](CCCCN)NC(=O)[C@H](N)CCCCN)[C@H](C)CC)C(C)C)C(=O)NCCCC[C@H](NC(=O)[C@H](CCCCNC(=O)[C@@H](C)NC(=O)[C@@H](CO)NC(=O)[C@@H](CC(C)C)NC(=O)[C@@H](CCCNC(=N)N)NC(=O)[C@H](NC(=O)[C@@H](CCCNC(=N)N)NC(=O)[C@H](NC(=O)[C@@H](CCCCN)NC(=O)[C@H](N)CCCCN)[C@H](C)CC)C(C)C)NC(=O)[C@@H](C)NC(=O)[C@@H](CO)NC(=O)[C@@H](CC(C)C)NC(=O)[C@@H](CCCNC(=N)N)NC(=O)[C@H](NC(=O)[C@@H](CCCNC(=N)N)NC(=O)[C@H](NC(=O)[C@@H](CCCCN)NC(=O)[C@H](N)CCCCN)[C@H](C)CC)C(C)C)C(=O)NCCC(=O)O)C(C)C [M33-D] (I: H-[dK][dK][dI][dR][dV][dR][dL][dS][dA]KK[βAla]-OH / II: H-[dK][dK][dI][dR][dV][dR][dL][dS][dA]K / III: H-[dK][dK][dI][dR][dV][dR][dL][dS][dA] / IV: H-[dK][dK][dI][dR][dV][dR][dL][dS][dA]; amide I:10-IV:C, I:11-II:C, II:10-III:C; N-terminus assumed) yielded an MIC (K.pneumoniae ATCC 13833) of 3 µM (≈ 14 µg/mL), an MIC (E.coli W03BG0025) of 3 µM (≈ 14 µg/mL) and an MIC (S.aureus ATCC 29213) of 1.5 µM (≈ 7.02 µg/mL). The MIC (S.epidermidis ATCC 14990) was 0.4 µM (≈ 1.87 µg/mL), the MIC (S.epidermidis 6154) was 0.7 µM (≈ 3.28 µg/mL) and the “Minimum bactericidal concentration on biofilm (MBCb)” value [1] was 6 µM (≈ 28.1 µg/mL). The survival (S. aureus USA300) was 100% and the “peptide concentration giving total calcein leakage” value [2] was 5 µM.
With CC[C@H](C)[C@H](NC(=O)[C@H](CCCCN)NC(=O)[C@@H](N)CCCCN)C(=O)N[C@@H](CCCNC(=N)N)C(=O)N[C@H](C(=O)N[C@@H](CCCNC(=N)N)C(=O)N[C@@H](CC(C)C)C(=O)N[C@@H](CO)C(=O)N[C@@H](C)C(=O)NCCCC[C@H](NC(=O)[C@H](C)NC(=O)[C@H](CO)NC(=O)[C@H](CC(C)C)NC(=O)[C@H](CCCNC(=N)N)NC(=O)[C@@H](NC(=O)[C@H](CCCNC(=N)N)NC(=O)[C@@H](NC(=O)[C@H](CCCCN)NC(=O)[C@@H](N)CCCCN)[C@@H](C)CC)C(C)C)C(=O)NCCCC[C@H](NC(=O)[C@H](CCCCNC(=O)[C@H](C)NC(=O)[C@H](CO)NC(=O)[C@H](CC(C)C)NC(=O)[C@H](CCCNC(=N)N)NC(=O)[C@@H](NC(=O)[C@H](CCCNC(=N)N)NC(=O)[C@@H](NC(=O)[C@H](CCCCN)NC(=O)[C@@H](N)CCCCN)[C@@H](C)CC)C(C)C)NC(=O)[C@H](C)NC(=O)[C@H](CO)NC(=O)[C@H](CC(C)C)NC(=O)[C@H](CCCNC(=N)N)NC(=O)[C@@H](NC(=O)[C@H](CCCNC(=N)N)NC(=O)[C@@H](NC(=O)[C@H](CCCCN)NC(=O)[C@@H](N)CCCCN)[C@@H](C)CC)C(C)C)C(=O)NCCC(=O)O)C(C)C [M33-L] (I: H-KKIRVRLSAKK[βAla]-OH / II: H-KKIRVRLSAK / III: H-KKIRVRLSA / IV: H-KKIRVRLSA; amide I:10-IV:C, I:11-II:C, II:10-III:C; N-terminus assumed) the MIC (K.pneumoniae ATCC 13833) was 1.5 µM (≈ 7.02 µg/mL), the MIC (E.coli W03BG0025) was 0.7 µM (≈ 3.28 µg/mL) and the MIC (S.aureus ATCC 29213) was 6 µM (≈ 28.1 µg/mL). The MIC (S.epidermidis ATCC 14990) was 1.5 µM (≈ 7.02 µg/mL), the MIC (S.epidermidis 6154) was 3 µM (≈ 14 µg/mL) and the “Minimum bactericidal concentration on biofilm (MBCb)” value [1] was 6 µM (≈ 28.1 µg/mL). The “mortality (in words)” value (S. aureus USA300) was “mortality overlapping that of controls”, the survival (S. aureus USA300) was 0% and the “peptide concentration giving total calcein leakage” value [2] was 5 µM.
